# Laboratory results published in patent US20170296629A1, “INHIBITOR OF EXTRACELLULAR TRAP FORMATION IN LEUKOCYTE” (KEIO UNIVERSITY, priority 2014, published 2017).
# Ends that are not written are not given here.
# System: Healthy Individual's Peripheral Blood Neutrophil
# Experiment: Inhibition of NET formation in neutrophils pretreated with lactoferrin-derived peptide fragment; DNA concentration in culture supernatant (Picogreen)
# Type: cell-based
# Conditions: human neutrophils, pretreatment with peptide
# Description: Effect of Inhibiting NET Formation Stimulation of Healthy Individual's Peripheral Blood Neutrophil by Pretreatment with Lactoferrin-derived Peptide Fragment
# For each round of experiment, 15 ml to 20 ml of peripheral blood was collected from a healthy individual by using an EDTA-containing syringe (with a needle of 18 to 22 G). After collecting the blood, in a 15 ml conical tube charged with 3 ml of Mono-Poly Resolving Medium (Cat No. DSBN100, DS Pharma Biochemical Co., Ltd.), 3.5 ml of the whole blood was gently layered over a lower layer of Mono-Poly Resolving Medium. The resultant 15 ml conical tube was centrifuged with a swing centrifuge at room temperature (15 to 30° C.) at 400×g for 20 minutes, and the conical tube was then gently taken out. An uppermost brown plasma layer and a lymphocyte/monocyte layer thereunder were removed with an aspirator or the like. In addition, a transparent layer under the lymphocyte/monocyte layer was removed as much as possible. A pale pink layer under the transparent layer was taken out with a Pasteur pipette, and transferred, for washing neutrophils, to a test tube charged with phosphate buffered saline (PBS(−); 137 mM of sodium chloride, 2.7 mM of potassium chloride, 8.1 mM of disodium hydrogen phosphate dodecahydrate, and 1.47 mM of potassium dihydrogen phosphate). The test tube thus holding the neutrophils was centrifuged at room temperature (15 to 30° C.) at 200×g for 10 minutes. The test tube was taken out, and a supernatant was discarded. To the neutrophils held in the test tube, sterile water at 4° C. was added, and the resultant was allowed to stand still on ice for 30 seconds for hemolyzing erythrocytes mixed therein. After the hemolysis, 45 ml of PBS(−) was added thereto, and the resultant was centrifuged at 200×g for 10 minutes. […]
# A culture supernatant was collected, centrifuged at 200×g for 10 minutes, and the thus obtained supernatant was transferred to a fresh microcentrifuge tube. The amount of DNA was measured by using Picogreen dsDNA assay reagent (P11496 Invitrogen) in accordance with the accompanying protocol.
substance,measurement,setting,value
"SEQ ID NO: 6: Bovine lactoferricin; basic peptide obtained by pepsin hydrolysis of bovine lactoferrin, also prepared by PH Japan (MFKCRRWQWRMKKLGAPSITCVRRAF; ends and bridges not checked; cysteine pairing not given here; listed as Bos taurus)",inhibition of the NET (FIG. 2),FIG. 2,found to have the inhibiting effect
same,"inhibition of the NET formation, dependence on amount (FIG. 3)",,inhibited the NET formation in a volume-dependent manner
"SEQ ID NO: 7: Human lactoferricin, basic peptide prepared by PH Japan (GRRRRSVQWCAVSQPEATKCFQWQRNMRKVRGPPVSCIKRDSPIQCIQA; listed as Homo sapiens)","inhibition of the NET formation, dependence on amount (FIG. 3)",,inhibited the NET formation in a volume-dependent manner
